# Experimental data reported in ChEMBL document CHEMBL1132563, “Three-dimensional quantitative structure-activity relationship of interleukin 1-beta converting enzyme inhibitors: A comparative molecular field analysis study” (J Med Chem, 1999).
# Molecular target: T1, Caspase-1 (Homo sapiens) (UniProt P29466)
# T1 sequence (whole entry): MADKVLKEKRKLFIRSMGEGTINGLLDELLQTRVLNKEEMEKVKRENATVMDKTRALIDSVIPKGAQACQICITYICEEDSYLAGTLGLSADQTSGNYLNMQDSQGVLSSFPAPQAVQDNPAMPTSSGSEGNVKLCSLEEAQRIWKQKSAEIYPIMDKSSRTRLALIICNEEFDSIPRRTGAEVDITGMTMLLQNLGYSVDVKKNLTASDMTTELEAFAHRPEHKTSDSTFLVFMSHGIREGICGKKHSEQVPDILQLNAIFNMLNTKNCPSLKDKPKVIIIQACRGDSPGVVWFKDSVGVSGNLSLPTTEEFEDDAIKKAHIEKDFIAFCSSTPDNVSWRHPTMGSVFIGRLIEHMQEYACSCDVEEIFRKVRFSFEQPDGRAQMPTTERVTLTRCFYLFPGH
# Assay: Inhibitory activity against human IL-1 beta converting enzyme from monocytic THP-1 cell line, activity expressed as the logarithm of the second order rate constant for inactivation
# Format: cell-based
row,Structure (SMILES),Activity
1,CC(C)[C@H](NC(=O)OCc1ccccc1)C(=O)N[C@@H](CC(=O)O)C(=O)COP(=O)(Oc1ccccc1)Oc1ccccc1,4.7
2,CC(C)[C@H](NC(=O)OCc1ccccc1)C(=O)N[C@@H](CC(=O)O)C(=O)COP(=O)(Oc1ccc(Cl)cc1)Oc1ccc(Cl)cc1,4.89
3,C=CCOC(=O)N[C@@H](CC(=O)O)C(=O)COC(=O)c1c(C(F)(F)F)cccc1C(F)(F)F,3.72
4,C=CCOC(=O)N[C@@H](CC(=O)O)C(=O)COC(=O)c1c(C)cccc1C,2.91
5,CN(C)CCCCCC(=O)Nc1cnc(-c2ccc(F)cc2)n(CC(=O)NC(CC(=O)O)C(=O)COC(=O)c2c(Cl)cccc2Cl)c1=O (centres undefined),4.95
6,CC(C)C[C@H](NC(=O)OCc1ccccc1)C(=O)N[C@@H](Cc1ccccc1)C(=O)COP(=O)(Oc1ccccc1)Oc1ccccc1,2.7
7,O=C(O)CC(NC(=O)Cn1c(-c2ccc(F)cc2)ncc(NC(=O)OCc2ccccc2)c1=O)C(=O)COC(=O)c1c(Cl)cccc1Cl (centres undefined),5.43
8,C=CCOC(=O)N[C@@H](CC(=O)O)C(=O)COC(=O)c1c(O)cccc1O,3.43
9,O=C(O)CC(NC(=O)Cn1c(-c2ccc(F)cc2)ncc(NC(=O)OCc2ccccc2)c1=O)C(=O)COP(=O)(Oc1ccccc1)Oc1ccccc1 (centres undefined),5.16
10,CC(C)[C@H](NC(=O)OCc1ccccc1)C(=O)N[C@@H](C)C(=O)N[C@@H](CC(=O)O)C(=O)COP(=O)(Oc1ccccc1)Oc1ccccc1,5.07
11,C=CCOC(=O)N[C@@H](CC(=O)O)C(=O)COC(=O)c1ccc([N+](=O)[O-])cc1,1.79
12,O=C(O)C[C@H](NC(=O)OCc1ccccc1)C(=O)COC(=O)c1c(Cl)cccc1Cl,3.85
13,CC(C)[C@H](NC(=O)CCc1ccccc1)C(=O)N[C@@H](C)C(=O)N[C@@H](CC(=O)O)C(=O)COC(=O)c1ccc([N+](=O)[O-])cc1,6.11
14,CC(=O)N[C@@H](Cc1ccc(O)cc1)C(=O)N[C@H](C(=O)N[C@@H](C)C(=O)N[C@@H](CC(=O)O)C(=O)COC(=O)c1c(C(F)(F)F)cccc1C(F)(F)F)C(C)C,5.98
15,O=C(O)C[C@H](NC(=O)OCc1ccccc1)C(=O)COP(=O)(Oc1ccccc1)Oc1ccccc1,4.07
16,C=CCOC(=O)N[C@@H](CC(=O)O)C(=O)COC(=O)c1c(F)c(F)c(F)c(F)c1F,2.99
17,CC(C)[C@H](NC(=O)CCc1ccccc1)C(=O)N[C@@H](C)C(=O)N[C@@H](CC(=O)O)C(=O)COC(=O)c1c(O)cccc1O,5.85
18,O=C(O)CC(NC(=O)Cn1c(-c2ccc(F)cc2)ncc(NC(=O)NCc2ccccc2)c1=O)C(=O)COC(=O)c1c(Cl)cccc1Cl (centres undefined),5.17
19,CC(C)[C@H](NC(=O)OCc1ccccc1)C(=O)N[C@@H](C)C(=O)N[C@@H](CC(=O)O)C(=O)COP(=O)(Oc1ccc(Cl)cc1)Oc1ccc(Cl)cc1,5.36
20,C[C@H](NC(=O)[C@H](Cc1ccccc1)NC(=O)OCc1ccccc1)C(=O)COC(=O)c1c(Cl)cccc1Cl,2.7
21,C[C@H](NC(=O)[C@H](Cc1ccccc1)NC(=O)OCc1ccccc1)C(=O)COP(=O)(Oc1ccccc1)Oc1ccccc1,2.7
22,O=C(O)CC(NC(=O)Cn1c(-c2ccc(F)cc2)ncc(NS(=O)(=O)c2ccccc2)c1=O)C(=O)COC(=O)c1c(Cl)cccc1Cl (centres undefined),4.95
23,Nc1cnc(-c2ccc(F)cc2)n(CC(=O)NC(CC(=O)O)C(=O)COC(=O)c2c(Cl)cccc2Cl)c1=O (centres undefined),4.56
24,CC(=O)N[C@@H](Cc1ccc(O)cc1)C(=O)N[C@H](C(=O)N[C@@H](C)C(=O)N[C@@H](CC(=O)O)C(=O)COC(=O)c1c(C)cccc1C)C(C)C,6.04
25,O=C(O)CC(NC(=O)Cn1c(-c2ccc(F)cc2)ncc(NC(=O)c2ccco2)c1=O)C(=O)COC(=O)c1c(Cl)cccc1Cl (centres undefined),4.66
26,O=C(O)CC(NC(=O)Cn1c(-c2cccs2)ncc(NC(=O)OCc2ccccc2)c1=O)C(=O)COC(=O)c1c(Cl)cccc1Cl (centres undefined),5.43
27,CC(C)[C@H](NC(=O)CCc1ccccc1)C(=O)N[C@@H](C)C(=O)N[C@@H](CC(=O)O)C(=O)COC(=O)c1c(F)c(F)c(F)c(F)c1F,6.04

# More lines, now with the values ahead:
row,Activity,Structure (SMILES)
1,2.7,C[C@H](NC(=O)[C@H](Cc1ccccc1)NC(=O)OCc1ccccc1)C(=O)COc1cc(C(F)(F)F)nn1-c1ccccc1
2,5.45,CC(C)[C@H](NC(=O)CCc1ccccc1)C(=O)N[C@@H](C)C(=O)N[C@@H](CC(=O)O)C(=O)COC(=O)c1ccccc1
3,5.06,CC(C)[C@H](NC(=O)OCc1ccccc1)C(=O)N1CCC[C@H]1C(=O)N[C@@H](CC(=O)O)C(=O)COc1cc(C(F)(F)F)nn1-c1ccccc1
4,2.48,CC(C)[C@H](NC(=O)[C@@H]1CCCN1C(=O)OCc1ccccc1)C(=O)N[C@@H](CC(=O)O)C(=O)COc1cc(C(F)(F)F)nn1-c1ccccc1
5,4.04,O=C(O)C[C@H](NC(=O)OCc1ccccc1)C(=O)COc1cc(C(F)(F)F)nn1-c1ccccc1
6,5.43,CC(C)[C@H](NC(=O)OCc1ccccc1)C(=O)N1CCCCC1C(=O)N[C@H](CC(=O)O)C(=O)COc1cc(C(F)(F)F)nn1-c1ccccc1 (some centres undefined)
7,4.3,CC(C)[C@H](NC(=O)OCc1ccccc1)C(=O)N[C@@H](CC(=O)O)C(=O)COc1cc(C(F)(F)F)nn1-c1ccccc1
8,3.93,CC(C)[C@@H](C(=O)N[C@@H](C)C(=O)N[C@@H](CC(=O)O)C(=O)COc1cc(C(F)(F)F)nn1-c1ccccc1)N(C)C(=O)OCc1ccccc1
9,5.37,CC(C)[C@H](NC(=O)OCc1ccccc1)C(=O)N(C)[C@@H](C)C(=O)N[C@@H](CC(=O)O)C(=O)COc1cc(C(F)(F)F)nn1-c1ccccc1
10,6.08,Cc1cccc(C)c1C(=O)OCC(=O)[C@H](CC(=O)O)NC(=O)[C@H](C)NC(=O)[C@@H](NC(=O)CCc1ccccc1)C(C)C
11,5.61,CC(C)[C@H](NC(=O)OCc1ccccc1)C(=O)N[C@@H](C)C(=O)N[C@@H](CC(=O)O)C(=O)COC(=O)c1c(Cl)cccc1Cl
12,5.45,CC(C)[C@H](NC(=O)OCc1ccccc1)C(=O)N[C@@H](C)C(=O)N[C@@H](CC(=O)O)C(=O)COc1cc(C(F)(F)F)nn1-c1ccccc1
13,5.95,CC(C)[C@H](NC(=O)CCc1ccccc1)C(=O)N[C@@H](C)C(=O)N[C@@H](CC(=O)O)C(=O)COC(=O)c1c(C(F)(F)F)cccc1C(F)(F)F
14,5.2,O=C(O)CC(NC(=O)Cn1c(-c2ccc(F)cc2)ncc(NC(=O)OCc2ccccc2)c1=O)C(=O)COc1cc(C(F)(F)F)nn1-c1ccccc1 (centres undefined)
15,2.48,CC(C)[C@H](NC(=O)OCc1ccccc1)C(=O)N[C@@H](C)C(=O)N(C)[C@@H](CC(=O)O)C(=O)COc1cc(C(F)(F)F)nn1-c1ccccc1
16,4.98,Cc1ncc(NC(=O)OCc2ccccc2)c(=O)n1CC(=O)NC(CC(=O)O)C(=O)COc1cc(C(F)(F)F)nn1-c1ccccc1 (centres undefined)
17,5.16,O=C(O)CC(NC(=O)Cn1c(-c2cccnc2)ncc(NC(=O)OCc2ccccc2)c1=O)C(=O)COc1cc(C(F)(F)F)nn1-c1ccccc1 (centres undefined)
